Assay results from patent publication US9695155B2, “Herbicidal substituted pyrimidinyloxy benzene compounds” (E. I. DU PONT DE NEMOURS AND COMPANY, priority 2013, dated 2017).

Legend:
ragweed = assay: Test A preemergence; type: in vivo, Ambrosia elatior; settings: for Ragweed plant response rating: 500 g ai/ha
Method in brief: (§1)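 Visual injury scored 0–100 (100 = complete control) against untreated controls about 10 days after treatment in a greenhouse. Test chemicals, formulated with surfactant in non-phytotoxic solvent, were sprayed on soil preemergence or on 2-10 cm, one- to two-leaf plants postemergence.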

wild poinsettia = assay: Test E preemergence; type: in vivo, Euphorbia heterophylla; settings: for Poinsettia, Wild plant response rating: scale 0 to 100 (0 no effect, 100 complete control); for Plant response rating, Poinsettia, Wild: 125 g ai/ha, scale 0 to 100, 0 no effect, 100 complete control
Method in brief: (§2)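 Response was scored visually on a 0-100 scale (100 = complete control) versus controls after 14 to 21 days in the greenhouse. Test chemicals, formulated with surfactant in a non-phytotoxic solvent mixture, had been applied preemergence to seeds in silt loam soil or postemergence to 1- to 4-leaf plants in potting medium.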

yellow nutsedge = assay: Test E preemergence; type: in vivo, Cyperus esculentus; settings: for Nutsedge, Yellow plant response rating: scale 0 to 100 (0 no effect, 100 complete control); for Plant response rating, Nutsedge, Yellow: 125 g ai/ha, scale 0 to 100, 0 no effect, 100 complete control
Method in brief: as §2

arrowleaf sida = assay: Test E preemergence; type: in vivo, Sida rhombifolia; settings: for Arrowleaf Sida plant response rating: scale 0 to 100 (0 no effect, 100 complete control); for Plant response rating, Arrowleaf Sida: scale 0 to 100, 0 no effect, 100 complete control
Method in brief: as §2

Italian ryegrass [1] = assay: Test A postemergence; type: in vivo, Lolium multiflorum
Method in brief: as §1

dayflower = assay: Test E preemergence; type: in vivo, Commelina virginica; settings: for Dayflower, VA plant response rating: scale 0 to 100 (0 no effect, 100 complete control); for Plant response rating, Dayflower, VA: 125 g ai/ha, scale 0 to 100, 0 no effect, 100 complete control
Method in brief: as §2

hairy beggarticks = assay: Test E preemergence; type: in vivo, Bidens pilosa; settings: for Beggarticks plant response rating: scale 0 to 100 (0 no effect, 100 complete control); for Plant response rating, Beggarticks: scale 0 to 100, 0 no effect, 100 complete control
Method in brief: as §2

green foxtail = assay: Test E preemergence; type: in vivo, Setaria viridis; settings: for Foxtail, Green plant response rating: scale 0 to 100 (0 no effect, 100 complete control); for Plant response rating, Foxtail, Green: 125 g ai/ha, scale 0 to 100, 0 no effect, 100 complete control
Method in brief: as §2

surinam grass = assay: Test E preemergence; type: in vivo, Brachiaria decumbens; settings: for Surinam Grass plant response rating: scale 0 to 100 (0 no effect, 100 complete control); for Plant response rating, Surinam Grass: 125 g ai/ha, scale 0 to 100, 0 no effect, 100 complete control
Method in brief: as §2

kochia = assay: Test A postemergence; type: in vivo, Kochia scoparia
Method in brief: as §1

Italian ryegrass [2] = assay: Test E preemergence; type: in vivo, Lolium multiflorum; settings: for Ryegrass, Italian plant response rating: scale 0 to 100 (0 no effect, 100 complete control); for Plant response rating, Ryegrass, Italian: 125 g ai/ha, scale 0 to 100, 0 no effect, 100 complete control
Method in brief: as §2

sandbur = assay: Test E preemergence; type: in vivo, Cenchrus echinatus; settings: for Sandbur plant response rating: scale 0 to 100 (0 no effect, 100 complete control); for Plant response rating, Sandbur: 125 g ai/ha, scale 0 to 100, 0 no effect, 100 complete control
Method in brief: as §2

lambsquarters = assay: Test E preemergence; type: in vivo, Chenopodium album; settings: for Lambsquarters plant response rating: scale 0 to 100 (0 no effect, 100 complete control); for Plant response rating, Lambsquarters: 125 g ai/ha, scale 0 to 100, 0 no effect, 100 complete control
Method in brief: as §2

goosegrass = assay: Test E preemergence; type: in vivo, Eleusine indica; settings: for Goosegrass plant response rating: scale 0 to 100 (0 no effect, 100 complete control); for Plant response rating, Goosegrass: 125 g ai/ha, scale 0 to 100, 0 no effect, 100 complete control
Method in brief: as §2

[3] = 125 g ai/ha, 0 to 100 scale where 0 is no effect and 100 is complete control
[4] = 500 g ai/ha, 0 to 100 scale where 0 is no effect and 100 is complete control
[5] = 31 g ai/ha, 0 to 100 scale, 0 no effect, 100 complete control

## N#Cc1cccc(Oc2ncc(Br)cn2)c1-n1cc(I)cn1 [Compound 88]
ragweed; 0 to 100 scale, 0 no effect, 100 complete control, approx. 10 days
  Ragweed plant response rating: 60
Wild poinsettia; 16 g ai/ha
  Poinsettia, Wild plant response rating: 0
Wild poinsettia; 31 g ai/ha
  Poinsettia, Wild plant response rating: 0
Wild poinsettia; 62 g ai/ha
  Poinsettia, Wild plant response rating: 0
Wild poinsettia
  Plant response rating, Poinsettia, Wild: 0
Yellow nutsedge; 16 g ai/ha
  Nutsedge, Yellow plant response rating: 0
Yellow nutsedge; 31 g ai/ha
  Nutsedge, Yellow plant response rating: 0
Yellow nutsedge; 62 g ai/ha
  Nutsedge, Yellow plant response rating: 0
Yellow nutsedge
  Plant response rating, Nutsedge, Yellow: 0
Arrowleaf sida; 16 g ai/ha, preemergence
  Arrowleaf Sida plant response rating: 30
Arrowleaf sida; 31 g ai/ha, preemergence
  Arrowleaf Sida plant response rating: 40
Arrowleaf sida; Preemergence, 62 g ai/ha
  Plant response rating, Arrowleaf Sida: 10
Arrowleaf sida; preemergence, 125 g ai/ha
  Plant response rating, Arrowleaf Sida: 35
Italian ryegrass [1]; [3]
  Plant response rating, Ryegrass, Italian: 50
Italian ryegrass [1]; [4]
  Plant response rating, Ryegrass, Italian: 90
dayflower; 16 g ai/ha
  Dayflower, VA plant response rating: 0
dayflower; 31 g ai/ha
  Dayflower, VA plant response rating: 0
dayflower; 62 g ai/ha
  Dayflower, VA plant response rating: 0
dayflower
  Plant response rating, Dayflower, VA: 60
Hairy beggarticks; 16 g ai/ha, preemergence
  Beggarticks plant response rating: 0
Hairy beggarticks; 31 g ai/ha, preemergence
  Beggarticks plant response rating: 0
Hairy beggarticks; Preemergence, 62 g ai/ha
  Plant response rating, Beggarticks: 0
Hairy beggarticks; preemergence, 125 g ai/ha
  Plant response rating, Beggarticks: 0
Green foxtail; 16 g ai/ha
  Foxtail, Green plant response rating: 0
Green foxtail; 31 g ai/ha
  Foxtail, Green plant response rating: 0
Green foxtail; 62 g ai/ha
  Foxtail, Green plant response rating: 0
Green foxtail
  Plant response rating, Foxtail, Green: 35
Surinam grass; 16 g ai/ha
  Surinam Grass plant response rating: 0
Surinam grass; 31 g ai/ha
  Surinam Grass plant response rating: 0
Surinam grass; 62 g ai/ha
  Surinam Grass plant response rating: 0
Surinam grass
  Plant response rating, Surinam Grass: 10
kochia; [3]
  Plant response rating, Kochia: 80
kochia; [4]
  Plant response rating, Kochia: 100
Italian ryegrass [2]; 16 g ai/ha
  Ryegrass, Italian plant response rating: 0
Italian ryegrass [2]; 31 g ai/ha
  Ryegrass, Italian plant response rating: 0
Italian ryegrass [2]; 62 g ai/ha
  Ryegrass, Italian plant response rating: 0
Italian ryegrass [2]
  Plant response rating, Ryegrass, Italian: 0
sandbur; 16 g ai/ha
  Sandbur plant response rating: 0
sandbur; 31 g ai/ha
  Sandbur plant response rating: 0
sandbur; 62 g ai/ha
  Sandbur plant response rating: 0
sandbur
  Plant response rating, Sandbur: 10
lambsquarters; 16 g ai/ha
  Lambsquarters plant response rating: 75
lambsquarters; 31 g ai/ha
  Lambsquarters plant response rating: 50
lambsquarters; 62 g ai/ha
  Lambsquarters plant response rating: 100
lambsquarters
  Plant response rating, Lambsquarters: 100
goosegrass; 16 g ai/ha
  Goosegrass plant response rating: 0
goosegrass; 31 g ai/ha
  Goosegrass plant response rating: 0
goosegrass; 62 g ai/ha
  Goosegrass plant response rating: 5
goosegrass
  Plant response rating, Goosegrass: 5

## FC(F)(F)COc1cnn(-c2ccccc2Oc2ncc(Cl)cn2)c1 [Compound 138, 5-chloro-2-[2-[4-(2,2,2-trifluoroethoxy)-1H-pyrazol-1-yl]phenoxy]pyrimidine]
ragweed; [3]
  Plant response rating, Ragweed: 30
ragweed; 0 to 100 scale where 0 is no effect and 100 is complete control
  Ragweed plant response rating: 60
Wild poinsettia; 16 g ai/ha
  Poinsettia, Wild plant response rating: 0
Wild poinsettia; 31 g ai/ha
  Poinsettia, Wild plant response rating: 25
Wild poinsettia; 62 g ai/ha
  Poinsettia, Wild plant response rating: 35
Wild poinsettia
  Plant response rating, Poinsettia, Wild: 25
Yellow nutsedge; 16 g ai/ha
  Nutsedge, Yellow plant response rating: 0
Yellow nutsedge; 31 g ai/ha
  Nutsedge, Yellow plant response rating: 10
Yellow nutsedge; 62 g ai/ha
  Nutsedge, Yellow plant response rating: 15
Yellow nutsedge
  Plant response rating, Nutsedge, Yellow: 40
Arrowleaf sida; 16 g ai/ha, preemergence
  Arrowleaf Sida plant response rating: 0
Arrowleaf sida; 31 g ai/ha, preemergence
  Arrowleaf Sida plant response rating: 0
Arrowleaf sida; 62 g ai/ha, preemergence
  Arrowleaf Sida plant response rating: 40
Arrowleaf sida; preemergence, 125 g ai/ha
  Plant response rating, Arrowleaf Sida: 100
Italian ryegrass [1]; [3]
  Ryegrass, Italian plant response rating: 40
Italian ryegrass [1]; [4]
  Plant response rating, Ryegrass, Italian: 90
dayflower; 16 g ai/ha
  Dayflower, VA plant response rating: 0
dayflower; 31 g ai/ha
  Dayflower, VA plant response rating: 5
dayflower; 62 g ai/ha
  Dayflower, VA plant response rating: 30
dayflower
  Plant response rating, Dayflower, VA: 40
Hairy beggarticks; 16 g ai/ha, preemergence
  Beggarticks plant response rating: 0
Hairy beggarticks; 31 g ai/ha, preemergence
  Beggarticks plant response rating: 0
Hairy beggarticks; 62 g ai/ha, preemergence
  Beggarticks plant response rating: 0
Hairy beggarticks; preemergence, 125 g ai/ha
  Plant response rating, Beggarticks: 0
Green foxtail; 16 g ai/ha
  Foxtail, Green plant response rating: 0
Green foxtail; 31 g ai/ha
  Foxtail, Green plant response rating: 0
Green foxtail; 62 g ai/ha
  Foxtail, Green plant response rating: 20
Green foxtail
  Plant response rating, Foxtail, Green: 98
Surinam grass; 16 g ai/ha
  Surinam Grass plant response rating: 0
Surinam grass; 31 g ai/ha
  Surinam Grass plant response rating: 0
Surinam grass; 62 g ai/ha
  Surinam Grass plant response rating: 20
Surinam grass
  Plant response rating, Surinam Grass: 50
kochia; [3]
  Kochia plant response rating: 90
kochia; [4]
  Plant response rating, Kochia: 100
Italian ryegrass [2]; 16 g ai/ha
  Ryegrass, Italian plant response rating: 0
Italian ryegrass [2]; 31 g ai/ha
  Ryegrass, Italian plant response rating: 0
Italian ryegrass [2]; 62 g ai/ha
  Ryegrass, Italian plant response rating: 0
Italian ryegrass [2]
  Plant response rating, Ryegrass, Italian: 20
sandbur; 16 g ai/ha
  Sandbur plant response rating: 0
sandbur; 31 g ai/ha
  Sandbur plant response rating: 0
sandbur; 62 g ai/ha
  Sandbur plant response rating: 10
sandbur
  Plant response rating, Sandbur: 15
lambsquarters; 16 g ai/ha
  Lambsquarters plant response rating: 0
lambsquarters; 31 g ai/ha
  Lambsquarters plant response rating: 50
lambsquarters; 62 g ai/ha
  Lambsquarters plant response rating: 100
lambsquarters
  Plant response rating, Lambsquarters: 100
goosegrass; 16 g ai/ha
  Goosegrass plant response rating: 10
goosegrass; 31 g ai/ha
  Goosegrass plant response rating: 30
goosegrass; 62 g ai/ha
  Goosegrass plant response rating: 50
goosegrass
  Plant response rating, Goosegrass: 70

## N#Cc1cnn(-c2c(CF)cccc2Oc2ncc(F)cn2)c1 [Compound 151]
ragweed; 31 g ai/ha, 0 to 100 scale where 0 is no effect and 100 is complete control, visual, approximately 10 days
  Plant response rating, Ragweed: 20
ragweed; [3]
  Plant response rating, Ragweed: 80
Wild poinsettia; 31 g ai/ha
  Poinsettia, Wild plant response rating: 60
Wild poinsettia; 62 g ai/ha
  Poinsettia, Wild plant response rating: 100
Wild poinsettia
  Plant response rating, Poinsettia, Wild: 100
Yellow nutsedge; 31 g ai/ha
  Nutsedge, Yellow plant response rating: 0
Yellow nutsedge; 62 g ai/ha
  Nutsedge, Yellow plant response rating: 0
Yellow nutsedge
  Plant response rating, Nutsedge, Yellow: 0
Arrowleaf sida; 16 g ai/ha, preemergence
  Arrowleaf Sida plant response rating: 60
Arrowleaf sida; 31 g ai/ha, preemergence
  Arrowleaf Sida plant response rating: 80
Arrowleaf sida; 62 g ai/ha, preemergence
  Arrowleaf Sida plant response rating: 100
Arrowleaf sida; preemergence, 125 g ai/ha
  Plant response rating, Arrowleaf Sida: 100
Italian ryegrass [1]; [5]
  Plant response rating, Ryegrass, Italian: 0
Italian ryegrass [1]; [3]
  Ryegrass, Italian plant response rating: 30
dayflower; 16 g ai/ha
  Dayflower, VA plant response rating: 0
dayflower; 31 g ai/ha
  Dayflower, VA plant response rating: 10
dayflower; 62 g ai/ha
  Dayflower, VA plant response rating: 65
dayflower
  Plant response rating, Dayflower, VA: 85
Hairy beggarticks; 16 g ai/ha, preemergence
  Beggarticks plant response rating: 65
Hairy beggarticks; 31 g ai/ha, preemergence
  Beggarticks plant response rating: 65
Hairy beggarticks; 62 g ai/ha, preemergence
  Beggarticks plant response rating: 95
Hairy beggarticks; preemergence, 125 g ai/ha
  Plant response rating, Beggarticks: 100
Green foxtail; 16 g ai/ha
  Foxtail, Green plant response rating: 20
Green foxtail; 31 g ai/ha
  Foxtail, Green plant response rating: 20
Green foxtail; 62 g ai/ha
  Foxtail, Green plant response rating: 70
Green foxtail
  Plant response rating, Foxtail, Green: 75
Surinam grass; 31 g ai/ha
  Surinam Grass plant response rating: 0
Surinam grass; 62 g ai/ha
  Surinam Grass plant response rating: 35
Surinam grass
  Plant response rating, Surinam Grass: 100
kochia; [5]
  Plant response rating, Kochia: 60
kochia; [3]
  Kochia plant response rating: 90
Italian ryegrass [2]; 31 g ai/ha
  Ryegrass, Italian plant response rating: 10
Italian ryegrass [2]; 62 g ai/ha
  Ryegrass, Italian plant response rating: 10
Italian ryegrass [2]
  Plant response rating, Ryegrass, Italian: 65
sandbur; 31 g ai/ha
  Sandbur plant response rating: 0
sandbur; 62 g ai/ha
  Sandbur plant response rating: 0
sandbur
  Plant response rating, Sandbur: 35
lambsquarters; 31 g ai/ha
  Lambsquarters plant response rating: 100
lambsquarters; 62 g ai/ha
  Lambsquarters plant response rating: 100
lambsquarters
  Plant response rating, Lambsquarters: 100
goosegrass; 31 g ai/ha
  Goosegrass plant response rating: 0
goosegrass; 62 g ai/ha
  Goosegrass plant response rating: 70
goosegrass
  Plant response rating, Goosegrass: 85
